Experimental data taken from US8338422B2, “Indolin-2-ones and aza-indolin-2-ones” (Janssen Pharmaceutica NV, priority 2007, dated 2012).

Tests used:
Assay type in all cases: biochemical
PLK4 (h) = PLK4 (h) (Homo sapiens, UniProt O00444); experiment: PLK-4 human kinase assay (SPA); conditions: for IC50: read-out: PLK4 pIC50 (converted)
Procedure: (§1) The in vitro inhibition of a panel of kinases was assessed using either the scintillation proximity assay (SPA) as described by Cook, N. D. et al., Advances in Experimental Medicine and Biology (1991), 36; p. 525-528; or the Fluorescence Resonance Energy Transfer (FRET) technology as described by Rodems, S. M. et al., Assay Drug Develop. Technol. (2002), 1; p. 9-19.
(§2) In the SPA technology the activity of the kinase of interest is measured using an appropriate biotinylated substrate that is incubated with the aforementioned kinase protein in the presence of (^33P) radiolabeled ATP. (^33P) Phosporylation of the substrate is subsequently measured through binding of the phosphorylated substrate to streptavidine coated beads that are based on the scintillant poly(vinyl toluene) (PVT-Beads). The scintillation intensity is detected by imaging on Leadseeker.
(§3) All kinases are pre-diluted to a 10× working concentration prior to addition into the assay. The composition of the dilution buffer for each kinase is detailed below.
In a final reaction volume of 30 μl PLK4 (h) (19 μg/ml) is incubated with 50 mM Hepes pH 8.0, 10 mM MgCl2, 50 mM NaCl, 1 mM NaF, 1 mM DTT, 10 μM of peptide Biotin-RPRGQRDSSYYWE-OH, 1 μM ATP and 2 nM [γ-^33P-ATP] (6.0 μCi/ml). After incubation of 60 minutes at room temperature, the reaction is stopped by addition of 40 μl, of stop solution containing 8.7 mM EDTA, BSA 0.17%, 0.17% Triton X-100, 1.7 mg/ml SPA beads (GE-healthcare). The plate is centriguged and read for Scintillation imaging on Leadseeker.

AuroraB (h) = AuroraB (h) (Homo sapiens, UniProt Q96GD4); experiment: Aurora-B human kinase assay (SPA); conditions: for IC50: read-out: AuroraB pIC50 (converted)
Procedure: as §1, §2, §3
In a final reaction volume of 30 μl, AuroraB (h) (0.5 μg/ml) is incubated with 60 mM Hepes pH 7.5, 3 mM MgCl2, 3 mM MnCl2, 3 μM Na3VO4, 0.05 mg/ml PEG, 2 mM DTT, 3 μM Biotin-[…]-OH, 0.5 μM ATP and 2.2 nM [γ-^33P-ATP] (6.8 μCi/ml). After incubation of 60 minutes at room temperature, the reaction is stopped by addition of 40 μL of stop solution containing 8.7 mM EDTA, BSA 0.17%, 0.17% Triton X-100, 5 mg/ml SPA beads (GE-healthcare). The plate is centriguged and read for Scintillation imaging on Leadseeker.

GSK3β (h) = GSK3β (h) (Homo sapiens, UniProt P49841); experiment: GSK-3β human kinase assay (SPA); conditions: for IC50: read-out: GSK3B pIC50 (converted)
Procedure: as §1, §2, §3
In a final reaction volume of 30 μl, GSK3β (h) (1 μg/ml) is incubated with 25 mM Tris pH 7.4, 10 mM MgCl2, 1 mM DTT, 1 μM peptide Biotin-KRREILSRRPSYR-OH, 1 μM ATP and 2 nM [γ-^33P-ATP] (6.0 μCi/ml). After incubation of 60 minutes at room temperature, the reaction is stopped by addition of […] of stop solution containing 8.7 mM EDTA, BSA 0.17%, 0.17% Triton X-100, 6.25 mg/ml SPA beads (GE-healthcare). The plate is centriguged and read for Scintillation imaging on Leadseeker.

CDK1/CyclinB (h) = CDK1/CyclinB (h) (Homo sapiens, UniProt P06493); experiment: CDK1/CyclinB human kinase assay (FRET); conditions: for IC50: read-out: CDK1 pIC50 (converted)
Procedure: as §1
In the FRET technology the activity of the kinase of interest is measured using an appropriate substrate that is labeled with two fluorophores (coumarin and fluorescein). Phosphorylation is determined using a developing reagent comprising a protease that recognizes and cleaves nonphosphorylated peptides. Cleavage will disturb the FRET between the fluorescein and coumarin on the peptide. Uncleaved, phosphorylated peptides maintain the FRET signal. A ratiometric readout of the donor emission over the acceptor emission quantitates the reaction process.
as §3
In a final reaction volume of 10 μl, CDK1/CyclinB (h) (0.2 μg/ml) is incubated with 50 mM Hepes pH 7.5, 10 mM MgCl2, 1 mM EGTA, 0.01% Brij-35, 2 μM Z'lyte Ser/Thr peptide 12 and 10 μM ATP (Invitrogen's FRET assay). After incubation of 60 minutes at room temperature, the reaction is stopped by addition of 5 μL development reagent containing protease mix. After 60 minutes room temperature the development reaction is stopped by adding 5 μl stop solution. The plate is then read in fluorescence plate reader with excitation: 390 nm and dual emission: 460 and 538 nm. Emission ratio is determined to the formula=Emission signal intensity at 460 nm/Emission signal intensity at 538 nm.

CDK1/CyclinB (h), sequence (P06493 whole entry): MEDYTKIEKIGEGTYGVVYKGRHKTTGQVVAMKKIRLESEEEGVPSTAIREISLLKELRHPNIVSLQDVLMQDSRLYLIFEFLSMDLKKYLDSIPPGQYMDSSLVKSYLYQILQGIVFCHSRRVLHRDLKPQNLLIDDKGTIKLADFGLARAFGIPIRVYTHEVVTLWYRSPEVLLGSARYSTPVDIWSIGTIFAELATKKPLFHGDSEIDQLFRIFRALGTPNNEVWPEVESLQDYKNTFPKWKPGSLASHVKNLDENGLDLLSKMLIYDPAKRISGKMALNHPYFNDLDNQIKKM
CDK1/CyclinB (h), sequence (P14635 whole entry partner): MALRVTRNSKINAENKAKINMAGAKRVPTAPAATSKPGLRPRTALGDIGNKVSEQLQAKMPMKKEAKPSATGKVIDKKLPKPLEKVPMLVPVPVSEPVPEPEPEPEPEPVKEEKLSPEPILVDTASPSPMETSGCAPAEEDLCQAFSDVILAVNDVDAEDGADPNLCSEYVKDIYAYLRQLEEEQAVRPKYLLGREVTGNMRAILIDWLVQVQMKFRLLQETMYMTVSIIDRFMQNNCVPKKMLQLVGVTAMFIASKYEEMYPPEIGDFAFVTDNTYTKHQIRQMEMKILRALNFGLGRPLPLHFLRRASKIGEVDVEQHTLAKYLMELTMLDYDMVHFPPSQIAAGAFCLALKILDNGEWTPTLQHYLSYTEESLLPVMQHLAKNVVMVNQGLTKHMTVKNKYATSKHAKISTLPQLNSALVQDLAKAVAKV
AuroraB (h), sequence (Q96GD4 whole entry): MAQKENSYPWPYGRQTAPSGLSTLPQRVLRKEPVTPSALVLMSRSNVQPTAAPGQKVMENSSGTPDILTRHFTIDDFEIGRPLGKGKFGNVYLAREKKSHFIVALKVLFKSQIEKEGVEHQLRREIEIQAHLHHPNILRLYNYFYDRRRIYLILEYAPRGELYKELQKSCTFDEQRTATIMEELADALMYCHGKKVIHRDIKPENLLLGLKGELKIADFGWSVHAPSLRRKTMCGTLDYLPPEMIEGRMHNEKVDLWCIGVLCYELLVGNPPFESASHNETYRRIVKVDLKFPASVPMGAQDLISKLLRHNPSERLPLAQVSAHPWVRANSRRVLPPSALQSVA
PLK4 (h), sequence (O00444 whole entry): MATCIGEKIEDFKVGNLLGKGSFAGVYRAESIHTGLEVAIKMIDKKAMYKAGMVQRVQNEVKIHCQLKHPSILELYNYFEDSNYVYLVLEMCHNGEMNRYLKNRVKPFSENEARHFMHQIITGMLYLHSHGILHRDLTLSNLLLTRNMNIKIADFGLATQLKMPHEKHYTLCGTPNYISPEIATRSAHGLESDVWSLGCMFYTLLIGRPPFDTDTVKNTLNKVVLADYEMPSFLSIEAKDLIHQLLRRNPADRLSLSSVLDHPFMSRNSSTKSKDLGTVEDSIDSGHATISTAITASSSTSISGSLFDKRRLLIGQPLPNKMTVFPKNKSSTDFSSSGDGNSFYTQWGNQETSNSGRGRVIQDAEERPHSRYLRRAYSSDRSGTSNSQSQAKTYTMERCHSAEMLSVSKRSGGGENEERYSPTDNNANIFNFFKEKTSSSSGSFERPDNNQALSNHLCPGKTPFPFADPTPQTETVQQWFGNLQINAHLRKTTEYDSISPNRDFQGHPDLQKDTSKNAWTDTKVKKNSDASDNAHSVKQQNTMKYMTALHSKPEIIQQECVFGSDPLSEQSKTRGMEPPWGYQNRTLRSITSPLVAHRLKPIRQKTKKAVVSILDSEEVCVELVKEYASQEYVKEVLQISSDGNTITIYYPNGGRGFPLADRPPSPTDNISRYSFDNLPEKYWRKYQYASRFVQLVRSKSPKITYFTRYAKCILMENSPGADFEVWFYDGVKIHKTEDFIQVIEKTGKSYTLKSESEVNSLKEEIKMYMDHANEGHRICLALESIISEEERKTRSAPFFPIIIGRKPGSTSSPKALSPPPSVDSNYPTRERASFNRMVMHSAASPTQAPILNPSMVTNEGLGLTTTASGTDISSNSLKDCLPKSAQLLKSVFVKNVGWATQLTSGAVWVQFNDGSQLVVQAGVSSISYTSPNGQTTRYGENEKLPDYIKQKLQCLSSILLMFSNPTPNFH
GSK3β (h), sequence (P49841 whole entry): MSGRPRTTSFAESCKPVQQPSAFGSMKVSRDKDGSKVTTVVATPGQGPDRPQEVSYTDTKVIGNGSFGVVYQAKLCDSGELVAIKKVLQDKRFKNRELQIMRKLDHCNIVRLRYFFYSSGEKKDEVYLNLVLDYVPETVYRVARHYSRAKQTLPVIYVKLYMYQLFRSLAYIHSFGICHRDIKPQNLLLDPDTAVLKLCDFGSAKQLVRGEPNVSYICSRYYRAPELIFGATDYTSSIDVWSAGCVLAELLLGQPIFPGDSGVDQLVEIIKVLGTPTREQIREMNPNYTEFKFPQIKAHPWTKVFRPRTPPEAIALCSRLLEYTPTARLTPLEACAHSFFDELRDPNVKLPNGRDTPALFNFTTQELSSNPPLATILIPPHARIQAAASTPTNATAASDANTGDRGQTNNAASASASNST

Row | Compound | IC50 (PLK4 (h)) | IC50 (AuroraB (h)) | IC50 (GSK3β (h)) | IC50 (CDK1/CyclinB (h)) | PLK4 pIC50 (PLK4 (h)) | AuroraB pIC50 (AuroraB (h)) | GSK3B pIC50 (GSK3β (h)) | CDK1 pIC50 (CDK1/CyclinB (h))
1 | COc1ccc2cc1CN(C)CCCCC(=O)N(C)CCNc1ncnc3c1/C(=C/N2)C(=O)N3 [Compound 75] | 5.89 µM | > 10 µM | 0.562 µM | 5.37 µM |  |  |  | 
2 | COc1cc2cc(c1OC)CN(C)CCCC(=O)N(C)CCCNc1ncnc3c1/C(=C/N2)C(=O)N3 [Compound 6] | 6.17 µM | > 10 µM | > 10 µM | ~10 µM |  |  |  | 
3 | CN1CCCC(=O)N(C)CCNc2ncnc3c2/C(=C/Nc2cccc(c2)C1)C(=O)N3 [Compound 82] | 6.17 µM | > 10 µM | 1.05 µM | > 10 µM |  |  |  | 
4 | CN1CCCNc2ncnc3c2/C(=C/Nc2ccc(Cl)c(c2)OCCCCCC1=O)C(=O)N3 [Compound 64] | 2.14 µM | 0.794 µM | 0.0427 µM | > 10 µM |  |  |  | 
5 | CN1CCCCCCC(=O)N(C)CCNc2ncnc3c2/C(=C/Nc2cccc(c2)C1)C(=O)N3 [Compound 83] | 1.66 µM | > 10 µM | 2.19 µM | > 10 µM |  |  |  | 
6 | COc1ccc2cc1CN(C)CCCCC(=O)N(C)CCCN(C)c1ncnc3c1C(=CN2)C(=O)N3 (mixture of isomers) [Compound 87] |  |  |  |  | <5 | <5 | 6.17 | <5
7 | CN1CCCC(=O)N(C)CCCNc2ncnc3c2/C(=C/Nc2cccc(c2)C1)C(=O)N3 [Compound 73] | 3.72 µM | > 10 µM | 0.851 µM | 1.78 µM |  |  |  | 
8 | COc1ccc2cc1CN(C)CCCCCCC(=O)N(C)CCCNc1ncnc3c1C(=CN2)C(=O)N3 (mixture of isomers) [Compound 68] |  |  |  |  | 5.74 | <5 | 5.04 | <5
9 | CN1CCCCC(=O)N(C)CCCN(C)c2ncnc3c2/C(=C/Nc2ccc(Cl)c(c2)C1)C(=O)N3 [Compound 91] | > 10 µM | > 10 µM | 0.977 µM | > 10 µM |  |  |  | 
10 | CN1CCCNc2ncnc3c2C(=CNc2cccc(c2)OCCCCC1=O)C(=O)N3 (mixture of isomers) [Compound 70] |  |  |  |  | 6.75 | 6.8 | 7.28 | 5.61
11 | CN1CCCC(=O)N(C)CCNc2ncnc3c2/C(=C/Nc2ccc(N4CCOCC4)c(c2)C1)C(=O)N3 [Compound 94] | 5.13 µM | > 10 µM | 1.05 µM | > 10 µM |  |  |  | 
12 | N#Cc1ccc2cc1OCCCCC(=O)N1CCN(CC1)c1ncnc3c1/C(=C/N2)C(=O)N3 [Compound 26] | > 10 µM | > 10 µM | 2.63 µM | > 10 µM |  |  |  | 
13 | CN1CCNc2ncnc3c2/C(=C/Nc2cccc(c2)OCCCCCCC1=O)C(=O)N3 [Compound 59] | 4.37 µM | 5.13 µM | 1.05 µM | > 10 µM |  |  |  | 
14 | CN1CCCNc2ncnc3c2C(=CNc2cccc(c2)OCCCCCC1=O)C(=O)N3 (mixture of isomers) [Compound 71] |  |  |  |  | 6.7 | 6.15 | 7.21 | 5.56
15 | CN1CCCCC(=O)N(C)CCCNc2ncnc3c2/C(=C/Nc2ccc(N4CCOCC4)c(c2)C1)C(=O)N3 [Compound 96] | 0.741 µM | > 10 µM | 0.708 µM | 3.39 µM |  |  |  | 
16 | CN1CCCCCC(=O)N(C)CCCNc2ncnc3c2/C(=C/Nc2cccc(c2)C1)C(=O)N3 [Compound 81] | 1.07 µM | > 10 µM | 2.75 µM | > 10 µM |  |  |  | 

Row | Compound | IC50 (PLK4 (h)) | IC50 (AuroraB (h)) | IC50 (GSK3β (h)) | IC50 (CDK1/CyclinB (h)) | PLK4 pIC50 (PLK4 (h)) | AuroraB pIC50 (AuroraB (h)) | GSK3B pIC50 (GSK3β (h)) | CDK1 pIC50 (CDK1/CyclinB (h))
17 | CN1CCCNc2ncnc3c2C(=CNc2ccc(Cl)c(c2)OCCCC1=O)C(=O)N3 (mixture of isomers) [Compound 63] |  |  |  |  | 6.52 | 7.01 | 7.68 | 6.1
18 | CN1CCNc2ncnc3c2/C(=C/Nc2ccc(N4CCOCC4)c(c2)OCCCC1=O)C(=O)N3 [Compound 8] | > 10 µM | > 10 µM | > 10 µM | > 10 µM |  |  |  | 
19 | CN1CCNc2ncnc3c2/C(=C/Nc2ccc(Cl)c(c2)OCCCCCCC1=O)C(=O)N3 [Compound 78] | > 10 µM | 7.59 µM | 2.19 µM | > 10 µM |  |  |  | 
20 | CN1CCC(=O)NCC#Cc2cccc3c2/C(=C/Nc2cccc(c2)S(=O)(=O)N(C)CC1=O)C(=O)N3 [Compound 21] | 1.86 µM | > 10 µM | 4.68 µM | > 10 µM |  |  |  | 
21 | COc1ccc2cc1OCCCCCCC(=O)N(C)CCCNc1ncnc3c1/C(=C/N2)C(=O)N3 [Compound 72] | 1.45 µM | 1.91 µM | 0.575 µM | > 10 µM |  |  |  | 
22 | COc1ccc2cc1CN(C)CCCCC(=O)N(C)CCCNc1ncnc3c1/C(=C/N2)C(=O)N3 [Compound 67] | 5.62 µM | > 10 µM | 0.178 µM | 0.603 µM |  |  |  | 
23 | CN1CCCC(=O)N(C)CCCN(C)c2ncnc3c2/C(=C/Nc2ccc(Cl)c(c2)C1)C(=O)N3 [Compound 90] | 5.5 µM | > 10 µM | 0.617 µM | > 10 µM |  |  |  | 
24 | COc1cc2cc(c1OC)CN(C)CCCCC(=O)N(C)CCCNc1ncnc3c1/C(=C/N2)C(=O)N3 [Compound 95] | 2.69 µM | > 10 µM | 3.16 µM | 1.15 µM |  |  |  | 
25 | CN1CCNc2ncnc3c2/C(=C/Nc2cc(cc(C(F)(F)F)c2)OCCCC1=O)C(=O)N3 [Compound 127] | > 10 µM | > 10 µM | > 10 µM | > 10 µM |  |  |  | 
26 | CN1CCCCCC(=O)N(C)CCNc2ncnc3c2/C(=C/Nc2ccc(N4CCOCC4)c(c2)C1)C(=O)N3 [Compound 131] | 0.452 µM | > 10 µM | 6.38 µM | > 10 µM |  |  |  | 
27 | CCN1CCCCCC(=O)N2CCN(CC2)c2cccc3c2C(=CNc2cccc(c2)S(=O)(=O)N(C)CC1=O)C(=O)N3 (mixture of isomers) [Compound 1] | 6.92 µM | > 10 µM | 1.82 µM | > 10 µM |  |  |  | 
28 | CN1CCCN(C)c2ncnc3c2C(=CNc2cccc(c2)OCCCC1=O)C(=O)N3 (mixture of isomers) [Compound 88] |  |  |  |  | 5.85 | 5.33 | 6.26 | <5
29 | COc1ccc2cc1OCCCCC(=O)N(C)CCCNc1ncnc3c1C(=CN2)C(=O)N3 (mixture of isomers) [Compound 62] |  |  |  |  | 6.9 | 7.75 | 7.57 | 6.46
30 | COc1ccc2cc1OCCCCCCC(=O)N(C)CCNc1ncnc3c1C(=CN2)C(=O)N3 (mixture of isomers) [Compound 76] |  |  |  |  | 5.72 | 6.28 | 6.54 | <5
31 | CN1CCCN(C)c2ncnc3c2C(=CNc2ccc(Cl)c(c2)OCCCC1=O)C(=O)N3 (mixture of isomers) [Compound 86] |  |  |  |  | 5.9 | 5.47 | 6.42 | <5
